Series [1] can be described thus: Dynamic vapor sorption (DVS). The format is physicochemical. The settings on record: 25° C. The method, then: Sorption isotherms were determined using a SMS DVS Intrinsic moisture sorption analyzer controlled by SMS Analysis suite software. The sample temperature was maintained at 25° C. by the instrument controls. The humidity was controlled by mixing streams of dry and wet nitrogen, with a total flow rate of 200 mL/min. The relative humidity was measured by a calibrated Rotronic probe (dynamic range of 1.0-100% RH), located near the sample. The weight change, (mass relaxation) of the sample as a function of % RH was constantly monitored by the microbalance (accuracy ±0.005 mg).
Typically a 5-20 mg sample was placed on the tared mesh stainless steel basket under ambient conditions. The sample was loaded and unloaded at 40% RH and 25° C. (typical ambient conditions). A moisture sorption isotherm was performed as outlined below (2 scans giving 1 complete cycle). The standard isotherm was performed at 25° C. at 10% RH intervals over a 0-90% RH range.

Molecules are shown by their SMILES.

On to `C(=C\[C@H]1CCNC1)/c1cncc(OC2CCOCC2)c1.O=C(O)C(=O)O`, for which the melting point lay within 180 to 181 °C.

Consider `C(=C\[C@H]1CCNC1)/c1cncc(OC2CCOCC2)c1.O=C(O)C[C@H](O)C(=O)O` [(R)-3-((E)-2-(pyrrolidin-3-yl)vinyl)-5-(tetrahydropyran-4-yloxy)pyridine mono-L-malate], for which, in series [1], the DVS water uptake entry is “minimum water uptake up to 80% R.H”.
